From paper PMC9865752, “Design and Synthesis of (Z)-2-(Benzylamino)-5-benzylidenethiazol-4(5H)-one Derivatives as Tyrosinase Inhibitors and Their Anti-Melanogenic and Antioxidant Effects” (Molecules, 2023)

Assays:
[1] = test system: microphthalmia-associated transcription factor (MITF); assay: Western blotting of MITF protein expression; type: cell-based, murine
Procedure: We investigated whether, in addition to the direct inhibition of tyrosinase, another inhibitory mechanism of melanogenesis by derivative 8 may be related to the expression of proteins involved in melanogenesis. For the Western blotting experiment, B16F10 cells were treated with α-MSH (1 µM) plus IBMX (200 µM), leading to a 1.7- and 4.9-fold increase in expression levels of melanogenesis-associated proteins tyrosinase and MITF, compared to those in the untreated control (100%) (Figure 13).
B16F10 cells were seeded in a 60 mm dish at a density of 5 × 10^5 cells/mL for 24 h, washed with cold PBS, and harvested. Cytosolic and nuclear fractions of cell lysates were extracted using lysis buffer, as described previously. Protein concentrations in the cell lysates were estimated using the BCA protein assay (Pierce, Rockford, IL, USA). […] The membranes were washed and protein bands detected using the SuperSignal West Pico Chemiluminescence assay kit (Advansta, San Jose, CA, USA) and the Davinch–Chem program (Davinch-K, Seoul, Republic of Korea). Immunoblotting data were quantified using CS Analyzer 3.2 (Densitograph) image analysis software (http://www.attokorea.co.kr, accessed on 21 November 2022).

[2] = SIN-1-induced ROS scavenging assay; conditions: 20 µM; SIN-1 as ROS generator; DCFH-DA probe
Source text: The scavenging activities of the BABT derivatives 1–14 against ROS and peroxynitrite (ONOO^−) were investigated because the antioxidant activities of the compounds may modulate melanogenesis. To measure the ROS scavenging activities of BABT derivatives, 2′,7′-dichlorodihydrofluorescein diacetate (DCFH-DA) and 3-morpholinosydnonimine (SIN-1) were used as a fluorogenic probe and ROS generator, respectively. The reaction of DCFH-DA with esterase produces 2′,7′-dichlorodihydrofluorescein (DCFH), which generates the fluorescent compound 2′,7′-dichlorofluorescein (DCF) by reacting with ROS produced by SIN-1. Therefore, ROS scavenging activities were determined by measuring the DCF fluorescence remaining after the BABT derivatives scavenged the ROS generated by SIN-1. […] BABT derivatives and Trolox, the positive control, were used at a concentration of 20 µM.
The ROS scavenging activities of the BABT derivatives were measured using an oxidant-sensitive fluorescent probe. Derivatives or Trolox (10 µL; final concentration: 20 µM) were seeded in a black 96-well plate. Then, 10 µL of SIN-1 (10 µM) was added to induce radical species generation and mixed with 180 µL of sodium phosphate buffer (pH 7.4) containing 12.5 µM DCF-DA and 600 units of esterase. Fluorescence intensity was measured at emission and excitation wavelengths of 535 and 485 nm, respectively, using a fluorescence microplate reader (Berthold Technologies GmbH & Co., Wien, Austria). Trolox was used as the positive control.

[3] = molecular target: T1, mushroom tyrosinase (Agaricus bisporus, UniProt C7FF04); assay: Kinetic studies of mushroom tyrosinase inhibition (Lineweaver–Burk and Dixon plots); type: biochemical; conditions: substrate L-dopa
T1 construct: purchased
Procedure: Kinetic studies using Lineweaver–Burk plots were performed using four different concentrations (0, 0.5, 1, and 2 µM) of the test derivatives (7 and 8) and five different concentrations (0.5, 1, 2, 4, and 8 mM for 7, and 1, 2, 4, 8, and 16 mM for 8) of L-dopa.
Lineweaver–Burk plots for 7 and 8 were transformed into the corresponding Dixon plots to determine their inhibition constant (Ki) values for the mushroom tyrosinase–inhibitor complex. […] The Ki values for the mushroom tyrosinase–inhibitor complex were obtained from the x-axis value of each convergence point.
Lineweaver–Burk plots of derivatives 7 and 8 were obtained in the presence of L-dopa as the substrate. Briefly, 20 µL aliquots of mushroom tyrosinase aqueous solution (200 units/mL) were added to each well of a 96-well plate containing 10 µL BABT derivative (7 or 8) DMSO solution (final concentrations: 0, 0.5, 1, and 2 µM) and 170 µL of an aqueous solution containing L-dopa (final concentrations: 1.0, 2.0, 4.0, 8.0, and 16.0 mM) and sodium phosphate buffer (pH 6.5, 17.2 mM). The initial rate of dopachrome formation was determined by examining the changes in absorbance at a wavelength of 475 nm (ΔOD475/min) using a microplate reader (VersaMax; Molecular Devices).

[4] = Peroxynitrite scavenging assay; conditions: 20 µM; SIN-1 as generator; DHR123 probe
Procedure: The effects of the BABT derivatives on peroxynitrite scavenging activities were also examined using SIN-1 as an RNS generator and dihydrorhodamine (DHR123) as an ROS indicator. DHR123 was converted to fluorescent rhodamine 123 by peroxynitrite generated by SIN-1. Therefore, the peroxynitrite scavenging activities of 1–14 were assessed by measuring the fluorescence of rhodamine 123. BABT derivatives and penicillamine, the positive control, were used at a concentration of 20 µM.
The peroxynitrite scavenging activities of the BABT derivatives were assessed using the method developed by Kooy, involving the monitoring of highly fluorescent rhodamine 123, which was rapidly produced from non-fluorescent DHR123 in the presence of peroxynitrite. Rhodamine buffer (pH 7.4) was composed of 50 mM sodium phosphate dibasic, 50 mM sodium phosphate monobasic, 90 mM sodium chloride, 5 mM potassium chloride, and 100 µM DTPA. A 10 µL aliquot of BABT derivatives or PCA (final concentration: 20 µM) was seeded in a black 96-well plate. Then, 10 µL of SIN-1 (10 µM) was added to induce radical species generation and mixed with 180 µL of rhodamine buffer. Fluorescence intensity was measured at emission and excitation wavelengths of 535 and 485 nm, respectively, using a fluorescence microplate reader (Berthold Technologies GmbH & Co.). PCA was used as the positive control.

T1 sequence (C7FF04 1-392): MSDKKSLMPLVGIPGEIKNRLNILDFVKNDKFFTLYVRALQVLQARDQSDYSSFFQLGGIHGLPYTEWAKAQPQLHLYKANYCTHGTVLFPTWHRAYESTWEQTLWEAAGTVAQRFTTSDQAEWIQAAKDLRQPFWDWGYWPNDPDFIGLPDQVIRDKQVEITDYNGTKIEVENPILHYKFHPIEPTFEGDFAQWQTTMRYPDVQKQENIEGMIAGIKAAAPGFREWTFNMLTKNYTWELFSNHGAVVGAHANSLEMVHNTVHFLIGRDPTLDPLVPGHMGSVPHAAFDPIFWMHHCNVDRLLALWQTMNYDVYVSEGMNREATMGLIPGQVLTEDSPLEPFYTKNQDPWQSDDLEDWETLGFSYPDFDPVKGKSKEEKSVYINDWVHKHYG

- Ki ([3]; Dixon plots, read-out: inhibition constant (Ki) for the mushroom tyrosinase–inhibitor complex): 810 nM
- mode of inhibition ([3]; Lineweaver–Burk plots): competitive inhibitors
Structure (SMILES): O=C1N=C(NCc2ccccc2)S/C1=C\c1ccc(O)cc1O [Compound 8, (Z)-2-(benzylamino)-5-(2,4-dihydroxybenzylidene)thiazol-4(5H)-one]
- relative expression level of MITF protein ([1]; 10 µM, α-MSH plus IBMX treated B16F10 cells): lowered the protein expression to the same or lower control levels
- relative expression level of MITF protein ([1]; 5, 10 and 20 µM, α-MSH (1 µM) plus IBMX (200 µM) treated B16F10 cells): significantly reduced the relative expression levels of tyrosinase and MITF in a dose-dependent manner
- ROS scavenging activity (in words) [2]: did not show significant ROS scavenging effect
- peroxynitrite scavenging activity (in words) [4]: scavenged peroxynitrite more potently than did penicillamine
